Assay results: publication PMC6479814, “Structure-Based Design of Novel Benzimidazole Derivatives as Pin1 Inhibitors” (Molecules, 2019)
Read-outs that look alike come from different tables or passages of the source.

What was measured:
[1] = molecular target: T1, Pin1 (Homo sapiens, UniProt Q13526); details: known Pin1 inhibitors, Figure 1; cited from earlier work
T1 construct: purchased Sino Biological Inc., Beijing, China

[2] = design: method as in PMID 29170140; details: in humans; cited from earlier work
[3] = test system: tumor cells; design: method as in PMID 19729306, PMID 20207139, PMID 25091930; details: result in words; cited from earlier work
[4] = molecular target: T1, Pin1; assay: Pin1 inhibition, protease-coupled assay; assay type: biochemical; details: 10 °C; for inhibition at 10 µM: Pin1, compound at 10 μM; for IC50: Pin1, protease-coupled assay
Protocol: To investigate the Pin1 inhibitory potency of all synthesized compounds, the inhibition ratio at 10 μM or IC50 of all synthesized compounds was determined using protease-coupled assay.
Pin1 inhibitory activities were measured at 10 °C by protease-coupled assay as reported previous. Suc-Ala-Glu-cis-Pro-Phe-4-nitroaniline (Bachem, Bubendorf, Switzerland) in 0.47 mol/L, LiCl/trifluoroethanol was used as the substrate. The assay buffer (860 μL of 35 mM HERES at pH 7.8), Pin1 (20 μL, Bought from Sino Biological Inc., Beijing, China) and target compounds (10 μL of varying comcentrations in DMSO) were pre-equilibtated in the cuvette at 10 °C for 30 min. Then, 150 uL of ice-cooled chymotrypsin (60 mg/mL in 0.001 M/HCl) was added and mixed immediately. Additional substrate (40 μL) was added to start the assay and the reaction was monitored by absorbance at 390 nm for 90 s. For each compound, four concentrations (10 μM, 3.3 μM, 1.1 μM, 0.37 μM) were chosen, and the assay was performed in duplicate. The data was analyzed by Graphpad Prism 6.0.

[5] = test system: PC-3 cells; assay: In vitro anti-proliferative MTT assay; assay type: cell-based, human; details: Homo sapiens; PC-3 cells, MTT, 96 h
Protocol: As for Pin1 was overexpressed in human prostate cancer cells, the antiproliferative activity of these benzimidazole derivatives against PC-3 cells were further evaluated by MTT assay. Meanwhile, the polar surface area (PSA) of these compounds was calculated under the optimal conformation since PSA is the key indicator of membrane permeability.
The tested cells were plated in 96-well microtiter plates with a density of 2,000 cells/well and incubated in a humidified atmosphere with 5% CO2 at 37 °C for 24 h. The cells were then exposed to tested compounds of different concentrations in triplicate. After incubated for 96 h, 50 μL of 3-(4,5-dimethylthiazol-2-yl)-2,5-diphenyltetrazolium bromide (MTT) solution (2 mg/mL) was added to each well and incubated for an additional 4 h. Then the suspernatant was discarded and the fromazan was dissolved in 200 μL of dimethyl sulfoxide (DMSO). The plate was oscillated subtly at room temperature for 10 min before the absorbance was measured at 570 nm by a microplate reader. Cell inhibitory ratio was calculated with the following formula:Inhibitory Rate (%) = [(Acontrol − Atreated)/Acontrol] × 100%(1)
The GI50 was determined as the concentration that caused half inhibition of cell proliferation. All experiments were performed three times independently, and the results were reported presented as the mean.

T1 sequence (Q13526 whole entry): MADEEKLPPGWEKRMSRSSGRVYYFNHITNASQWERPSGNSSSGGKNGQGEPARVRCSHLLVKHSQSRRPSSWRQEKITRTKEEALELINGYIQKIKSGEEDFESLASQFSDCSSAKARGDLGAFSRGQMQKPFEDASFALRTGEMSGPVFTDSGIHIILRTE

inhibition at 10 µM [4] [%] | GI50 [5] [µM] | melting point [°C] | IC50 [4] [µM] | SMILES | IC50 [1] [µM] | half-life [2] [min] | antiproliferative activities against tumor cells [3]
 |  |  |  | Nc1nc(OCc2ccc(CNC(=O)C(F)(F)F)cc2)c2nc[nH]c2n1 [API-1] | 0.07 |  | 
 |  |  |  | CC1=C(/C=C/C(C)=C/C=C/C(C)=C/C(=O)O)C(C)(C)CCC1 [ATRA, all-trans retinoic acid] |  | 45 | 
 |  |  |  | O=Cc1nc2ccccc2[nH]1 [Compound 2] |  |  | did not exhibit antiproliferative activities
75 | > 50 | 223 to 225 |  | COc1cccc(NC(=O)CCn2c(-c3nc(C(=O)O)cs3)nc3ccccc32)c1 [Compound 13d, 2-(1-(3-((3-Methoxyphenyl)amino)-3-oxopropyl)-1H-benzo[d]imidazol-2-yl)thiazole-4-carboxylic acid] |  |  | 
79 | > 50 | 208 to 210 |  | COc1cc(NC(=O)CCn2c(-c3nc(C(=O)O)cs3)nc3ccccc32)cc(OC)c1 [Compound 13e, 2-(1-(3-((3,5-Dimethoxyphenyl)amino)-3-oxopropyl)-1H-benzo[d]imidazol-2-yl)thiazole-4-carboxylic acid] |  |  | 
40 | > 50 | 234 to 236 |  | O=C(CCn1c(-c2nc(C(=O)O)cs2)nc2ccccc21)Nc1cccc([N+](=O)[O-])c1 [Compound 13f, 2-(1-(3-((3-Nitrophenyl)amino)-3-oxopropyl)-1H-benzo[d]imidazol-2-yl)thiazole-4-carboxylic acid] |  |  | 
99 | > 50 | 178 to 180 | 0.37 | O=C(CCn1c(-c2nc(C(=O)O)cs2)nc2ccccc21)Nc1cccc(C(F)(F)F)c1 [Compound 13g, 2-(1-(3-Oxo-3-((3-(trifluoromethyl)phenyl)amino)propyl)-1H-benzo[d]imidazol-2-yl)thiazole-4-carboxylic acid] |  |  | 
81 | > 50 | 176 to 178 | 1.15 | O=C(CCn1c(-c2nc(C(=O)O)cs2)nc2ccccc21)Nc1ccc(C(F)(F)F)cc1 [Compound 13h, 2-(1-(3-Oxo-3-((4-(trifluoromethyl)phenyl)amino)propyl)-1H-benzo[d]imidazol-2-yl)thiazole-4-carboxylic acid] |  |  | 
80 | > 50 | 192 to 194 | 1.35 | O=C(CCn1c(-c2nc(C(=O)O)cs2)nc2ccccc21)Nc1cc(Cl)cc(Cl)c1 [Compound 13i, 2-(1-(3-((3,5-Dichlorophenyl)amino)-3-oxopropyl)-1H-benzo[d]imidazol-2-yl)thiazole-4-carboxylic acid] |  |  | 
72 | > 50 | 204 to 206 |  | Cc1ccc(NC(=O)CCn2c(-c3nc(C(=O)O)cs3)nc3ccccc32)cc1F [Compound 13j, 2-(1-(3-((3-Fluoro-4-methylphenyl)amino)-3-oxopropyl)-1H-benzo[d]imidazol-2-yl)thiazole-4-carboxylic acid] |  |  | 
